Source: patent publication US20230143604A1, “QW DOSING OF GIP RECEPTOR AGONIST PEPTIDE COMPOUNDS AND USES THEREOF” (TAKEDA PHARMACEUTICAL COMPANY LIMITED, priority 2020, published 2023)
Starred links: 1 amine or outer side, 2 acyl side, 3 side chain; linkers in the order of their positions; H or OH if unused. Non-standard residues stand in square brackets, D forms with d. Residues, ends and D or L forms follow the SMILES beside them. Groups on a side chain read outwards from the residue. No end group written: not given here. *: point of attachment. C18 diacid = O=C(O)CCCCCCCCCCCCCCCCC(=O)*; γGlu = O=C(O)[C@H](CCC(=O)[*:2])N[*:1]; NMeY = CN[C@@H](Cc1ccc(O)cc1)C(=O)O; AEEA = NCCOCCOCC(=O)O; Aib = CC(C)(N)C(=O)O

B1: Compound No. 218 (peptide)
peptide: [NMeY]AEGTFISDYSI[Aib]LDR[Aib]AQ[Aib]K([AEEA-AEEA-γGlu-γGlu-C18 diacid])FVNWLLAQRG-OH
B2: Compound No. 216 (peptide)
peptide: [NMeY][Aib]EGTFISDYSIALDRAAQAK([AEEA-AEEA-γGlu-γGlu-C18 diacid])FVNWLLAQRG-OH
B3: Compound No. 217 (peptide)
peptide: [NMeY][dA]EGTFISDYSI[Aib]LDR[Aib]AQ[Aib]K([AEEA-AEEA-γGlu-γGlu-C18 diacid])FVNWLLAQRG-OH
B4: Compound No. 214 (peptide)
peptide: [NMeY][Aib]EGTFISDYSI[Aib]LDRAAQ[Aib]K([AEEA-AEEA-γGlu-γGlu-C18 diacid])FVNWLLAQRG-OH
B5: Compound No. 215 (peptide)
peptide: [NMeY][Aib]EGTFISDYSI[Aib]LDR[Aib]AQAK([AEEA-AEEA-γGlu-γGlu-C18 diacid])FVNWLLAQRG-OH
B6: Compound No. 219 (peptide)
peptide: [NMeY][Aib]EGTFISDYSI[Aib]LDR[Aib]AQ[Aib]K([AEEA-AEEA-C18 diacid])FVNWLLAQRG-OH

Key:
[1] = physchem
Summary of the method: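 3 mg of peptide treated with 100 μL portions of 200 mM phosphate buffer pH 7.4, sonicating/vortexing up to 1 min, with further buffer added until fully dissolved. Solubility then quantified by HPLC.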

[2] = target: T1, human GLP-1R (Homo sapiens, UniProt P43220); assay: Human GLP1R agonist activity, intracellular cAMP accumulation; format: cell-based; settings: HEK-293T cells overexpressing human GLP-1R, 1 hr, read-out: Human GLP1R cAMP EC50, HEK293T
T1 construct: HEK-293T cells overexpressing full-length human GLP-1R; FLAG (N); host or cells: HEK-293T
Method: Cells are cultured per the manufacturer's protocol in DMEM with 10% fetal bovine serum and 1 μg/mL puromycin and stored in frozen aliquots to be used as assay ready cells. On the day of the assay, cells are removed from frozen storage, washed two times in 1× Kreb's Ringer Buffer (Zenbio, Research Triangle Park, N.C.), and re-suspended to a concentration of 4×10^5 cells/mL in 1× Kreb's Ringer Buffer. […] Cells are incubated with test compound for 1 hr at room temperature in the dark, and cAMP accumulation is measured using the Cisbio HiRange cAMP assay kit (Bedford, Mass.) per the manufacturer's protocol. Anti-cAMP antibody and d2-cAMP tracer reagents diluted in lysis/detection buffer are incubated in the dark for 1 hr, and results are measured on an Envision plate reader (Perkin Elmer, Waltham, Mass.). Data is normalized using 1 nm GLP-1 as 100% activity, and DMSO alone as 0% activity.

[3] = target: full-length human GLP-1R with an N-terminal FLAG tag, overexpressed on HEK-293T cells (human, UniProt P43220 24-463); assay: cell-based or functional assay
[4] = target: T2, full-length human GIPR with an N-terminal FLAG tag, overexpressed on HEK-293T cells (human, UniProt P48546 22-466); assay: cell-based or functional assay
T2 sequence (looked up): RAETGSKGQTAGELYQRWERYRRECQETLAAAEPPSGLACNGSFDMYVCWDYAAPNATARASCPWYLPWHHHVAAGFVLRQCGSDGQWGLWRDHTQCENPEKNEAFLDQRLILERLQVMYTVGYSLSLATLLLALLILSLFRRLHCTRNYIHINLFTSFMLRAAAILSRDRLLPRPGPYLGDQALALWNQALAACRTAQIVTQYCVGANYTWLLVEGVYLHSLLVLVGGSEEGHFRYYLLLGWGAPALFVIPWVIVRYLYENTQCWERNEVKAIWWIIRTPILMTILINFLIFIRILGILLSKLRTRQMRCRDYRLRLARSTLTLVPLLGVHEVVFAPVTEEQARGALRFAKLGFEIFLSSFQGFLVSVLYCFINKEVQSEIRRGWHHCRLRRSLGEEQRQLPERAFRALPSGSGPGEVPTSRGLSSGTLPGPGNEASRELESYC

T1 sequence (P43220 24-463): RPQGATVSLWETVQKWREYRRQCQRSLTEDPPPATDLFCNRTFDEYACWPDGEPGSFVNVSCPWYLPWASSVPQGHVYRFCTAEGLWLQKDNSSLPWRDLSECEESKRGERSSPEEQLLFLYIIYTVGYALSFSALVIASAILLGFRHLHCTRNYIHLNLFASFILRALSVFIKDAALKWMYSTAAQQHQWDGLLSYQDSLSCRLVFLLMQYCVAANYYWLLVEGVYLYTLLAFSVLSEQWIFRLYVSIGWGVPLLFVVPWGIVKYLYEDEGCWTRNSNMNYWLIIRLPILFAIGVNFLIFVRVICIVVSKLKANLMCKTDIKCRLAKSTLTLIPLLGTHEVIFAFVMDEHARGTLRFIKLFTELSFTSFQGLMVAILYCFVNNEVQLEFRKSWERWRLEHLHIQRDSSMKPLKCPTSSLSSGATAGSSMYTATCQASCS

Molecule | solubility ([1]; pH 7.4) [mg/mL] | solubility ([1]; pH 7.4, aqueous buffer) [mg/mL] | EC50 [2] [nM] | Human GLP1R cAMP EC50, HEK293T [3] [nM] | Human GIPR cAMP EC50, HEK293T [4] [nM]
CC[C@H](C)[C@H](NC(=O)[C@H](CO)NC(=O)[C@H](Cc1ccc(O)cc1)NC(=O)[C@H](CC(=O)O)NC(=O)[C@H](CO)NC(=O)[C@@H](NC(=O)[C@H](Cc1ccccc1)NC(=O)[C@@H](NC(=O)CNC(=O)[C@H](CCC(=O)O)NC(=O)C(C)(C)NC(=O)[C@H](Cc1ccc(O)cc1)NC)[C@@H](C)O)[C@@H](C)CC)C(=O)N[C@@H](C)C(=O)N[C@@H](CCCCNC(=O)CNC(=O)CNC(=O)CNC(=O)CNC(=O)CNC(=O)CCCCCCCCCCCCCCCCC(=O)O)C(=O)N[C@@H](CC(=O)O)C(=O)N[C@@H](CO)C(=O)NC(C)(C)C(=O)N[C@@H](C)C(=O)N[C@@H](CCC(N)=O)C(=O)NC(C)(C)C(=O)N[C@@H](CC(=O)O)C(=O)N[C@@H](Cc1ccccc1)C(=O)N[C@H](C(=O)N[C@@H](CC(N)=O)C(=O)N[C@@H](Cc1c[nH]c2ccccc12)C(=O)N[C@@H](CC(C)C)C(=O)N[C@@H](CC(C)C)C(=O)N[C@@H](C)C(=O)N[C@@H](CCC(N)=O)C(=O)N[C@@H](CO)C(=O)NCC(=O)O)C(C)C [Compound 60] | ≥ 15 | ≥ 30 | 100 |  | 
CC[C@H](C)[C@H](NC(=O)[C@H](CO)NC(=O)[C@H](Cc1ccc(O)cc1)NC(=O)[C@H](CC(=O)O)NC(=O)[C@H](CO)NC(=O)[C@@H](NC(=O)[C@H](Cc1ccccc1)NC(=O)[C@@H](NC(=O)CNC(=O)[C@H](CCC(=O)O)NC(=O)C(C)(C)NC(=O)[C@H](Cc1ccc(O)cc1)NC)[C@@H](C)O)[C@@H](C)CC)C(=O)N[C@@H](C)C(=O)N[C@@H](CCCCNC(=O)CNC(=O)CNC(=O)CNC(=O)CNC(=O)CNC(=O)CCCCCCCCCCCCCCCCC(=O)O)C(=O)N[C@@H](CC(=O)O)C(=O)N[C@@H](CO)C(=O)NC(C)(C)C(=O)N[C@@H](C)C(=O)N[C@@H](CCC(N)=O)C(=O)NC(C)(C)C(=O)N[C@@H](CC(=O)O)C(=O)N[C@@H](Cc1ccccc1)C(=O)N[C@H](C(=O)N[C@@H](CC(N)=O)C(=O)N[C@@H](Cc1c[nH]c2ccccc12)C(=O)N[C@@H](CC(C)C)C(=O)N[C@@H](CC(C)C)C(=O)N[C@@H](C)C(=O)N[C@@H](CCC(N)=O)C(=O)N[C@@H](CCCCN)C(=O)NCC(=O)O)C(C)C [Compound 75] | ≥ 15 | ≥ 30 | 550 |  | 
CC[C@H](C)[C@H](NC(=O)[C@H](CO)NC(=O)[C@H](Cc1ccc(O)cc1)NC(=O)[C@H](CC(=O)O)NC(=O)[C@H](CO)NC(=O)[C@@H](NC(=O)[C@H](Cc1ccccc1)NC(=O)[C@@H](NC(=O)CNC(=O)[C@H](CCC(=O)O)NC(=O)C(C)(C)NC(=O)[C@H](Cc1ccc(O)cc1)NC)[C@@H](C)O)[C@@H](C)CC)C(=O)N[C@@H](C)C(=O)N[C@@H](CCCCNC(=O)CNC(=O)CNC(=O)CNC(=O)CNC(=O)CNC(=O)CCCCCCCCCCCCCCCCC(=O)O)C(=O)N[C@@H](CC(=O)O)C(=O)N[C@@H](CCCCN)C(=O)NC(C)(C)C(=O)N[C@@H](C)C(=O)N[C@@H](CCC(N)=O)C(=O)NC(C)(C)C(=O)N[C@@H](CC(=O)O)C(=O)N[C@@H](Cc1ccccc1)C(=O)N[C@H](C(=O)N[C@@H](CC(N)=O)C(=O)N[C@@H](Cc1c[nH]c2ccccc12)C(=O)N[C@@H](CC(C)C)C(=O)N[C@@H](CC(C)C)C(=O)N[C@@H](C)C(=O)N[C@@H](CCC(N)=O)C(=O)N[C@@H](CCCCN)C(=O)NCC(=O)O)C(C)C [Compound 76] | ≥ 15 | ≥ 30 | 28.8 |  | 
CC[C@H](C)[C@H](NC(=O)[C@H](Cc1ccccc1)NC(=O)[C@@H](NC(=O)CNC(=O)[C@H](CCC(=O)O)NC(=O)C(C)(C)NC(=O)[C@H](Cc1ccc(O)cc1)NC)[C@@H](C)O)C(=O)N[C@@H](CO)C(=O)N[C@@H](CC(=O)O)C(=O)N[C@@H](Cc1ccc(O)cc1)C(=O)N[C@@H](CO)C(=O)N[C@H](C(=O)NC(C)(C)C(=O)N[C@@H](CC(C)C)C(=O)N[C@@H](CC(=O)O)C(=O)N[C@@H](CO)C(=O)N[C@@H](CCCCNC(=O)CNC(=O)CNC(=O)CNC(=O)CNC(=O)CNC(=O)CCCCCCCCCCCCCCCCC(=O)O)C(=O)N[C@@H](C)C(=O)N[C@@H](CCC(N)=O)C(=O)NC(C)(C)C(=O)N[C@@H](CC(=O)O)C(=O)N[C@@H](Cc1ccccc1)C(=O)N[C@H](C(=O)N[C@@H](CC(N)=O)C(=O)N[C@@H](Cc1c[nH]c2ccccc12)C(=O)N[C@@H](CC(C)C)C(=O)N[C@@H](CC(C)C)C(=O)N[C@@H](C)C(=O)N[C@@H](CCC(N)=O)C(=O)N[C@@H](CCCCN)C(=O)NCC(=O)O)C(C)C)[C@@H](C)CC [Compound 77] | ≥ 15 | ≥ 30 | 17 |  | 
CC[C@H](C)[C@H](NC(=O)[C@H](Cc1ccccc1)NC(=O)[C@@H](NC(=O)CNC(=O)[C@H](CCC(=O)O)NC(=O)C(C)(C)NC(=O)[C@H](Cc1ccc(O)cc1)NC)[C@@H](C)O)C(=O)N[C@@H](CO)C(=O)N[C@@H](CC(=O)O)C(=O)N[C@@H](Cc1ccc(O)cc1)C(=O)N[C@@H](CO)C(=O)N[C@H](C(=O)NC(C)(C)C(=O)N[C@@H](CC(C)C)C(=O)N[C@@H](CC(=O)O)C(=O)N[C@@H](CCCNC(=N)N)C(=O)NC(C)(C)C(=O)N[C@@H](C)C(=O)N[C@@H](CCC(N)=O)C(=O)NC(C)(C)C(=O)N[C@@H](CCCCNC(=O)COCCOCCNC(=O)COCCOCCNC(=O)CCCCCCCCCCCCCCCCC(=O)O)C(=O)N[C@@H](Cc1ccccc1)C(=O)N[C@H](C(=O)N[C@@H](CC(N)=O)C(=O)N[C@@H](Cc1c[nH]c2ccccc12)C(=O)N[C@@H](CC(C)C)C(=O)N[C@@H](CC(C)C)C(=O)N[C@@H](C)C(=O)N[C@@H](CCC(N)=O)C(=O)N[C@@H](CCCNC(=N)N)C(=O)NCC(=O)O)C(C)C)[C@@H](C)CC [Compound 219] (H-[NMeY][Aib]EGTFISDYSI[Aib]LDR[Aib]AQ[Aib]K([AEEA-AEEA-C18 diacid])FVNWLLAQRG-OH) |  |  | 17.4 |  | 
B1 |  |  |  | 38 | 0.0005
B2 |  |  |  | 79.4 | 0.0005
B3 |  |  |  | 135 | 0.0006
B4 |  |  |  | 28.8 | 0.0014
B5 |  |  |  | 61.7 | 0.0005
B6 |  |  |  | 17.4 | 0.0008
